Entries after “also recorded” stand apart in the source; their conditions may differ. Read-outs that look alike come from different tables or passages of the source. A value given as a limit tells only on which side of the number the result lay.

Here are results for five molecules from patent US20060194814A1, “Benzamide compounds” (priority 2003, published 2006).

For data set [1], the system named is HIV-1 IIIB strain. Kind of data set: HIV-1 IIIB replication in HeLa indicator cells (AV-Finder-HIV assay), no pre-medication. It counts as cell-based. Conditions: for efficacy in reducing HIV-1 IIIB replication compared to AZT, ddI or 3TC: human cells.
In data set [2] the test system is HIV-1 IIIB strain. Kind of data set: HIV-1 IIIB replication in HeLa cells, 24 hours pre-medication. Type of data set: cell-based.
For data set [3], the system named is HIV-1 IIIB strain. Kind of data set: HIV-1 IIIB replication in HeLa cells, 48 hours pre-medication. It counts as cell-based. Conditions: 48 hours pretreatment, read-out: IC50 of inhibition of HIV replication.
Data set [4] deals with multi-drug resistant HIV MDR-769 strain. In words: HIV MDR 769 strain replication in HeLa cells, without pre-medication. Type of data set: cell-based.
Data set [5] has as its system HeLa cells. Kind of data set: MTT cytotoxicity assay after the HIV replication protocol. Type of data set: cell-based, human. Conditions: MTT cytotoxicity assay.
Data set [6] has as its system Y1 mouse adrenal tumor cells. Kind of data set: dbcAMP-induced 20á-hydroxyprogesterone synthesis in Y1 cells. It counts as cell-based. As to the method: Culture media were then changed and cells were stimulated with 1 mM dbcAMP and the treatment for 24 to 48 hours. […] The synthesis of 20 —OH progesterone and progesterone in Y1 and MA-10 cell media respectively were measured by RIA (Brown et al., 1992). H295R human adrenal tumor cells were seeded in 48-well plates at 10^5 cells/well and incubated for 24 hours. […] At the end of the incubation time period, cells were treated with 1 mM dbcAMP for 48 hours. Cortisol levels in the media were determined by radioimmunoassay as previously described (Amri et al., 1996).

The mark [7] stands for this setting: no pre-medication, concentrations up to 1 μM.

As to `Nc1ccn([C@@H]2CS[C@H](CO)O2)c(=O)n1` [3TC], in data set [1] (no pre-medication, maximal inhibition reached (maximal concentrations)), the “inhibition of HIV-1 IIIB viral replication reached” value was found to be 90%.

In the case of `Cc1cn([C@H]2C[C@H](N=[N+]=[N-])[C@@H](CO)O2)c(=O)[nH]c1=O` [AZT], the “inhibition of the replication” value in data set [2] (at 30 pM) was < 30%. Besides, the IC50 in data set [3] worked out at 30 nM; in data set [5], 161 µM. The “effect on HIV MDR 769 strain replication” value in data set [4] is given as “not effective; also recorded: ineffective”.

For the molecule `CC1CN(C(=O)C(Cc2c[nH]c3ccccc23)NC(=O)c2ccc([N+](=O)[O-])cc2)CCN1C(=O)C1CC1` (stereo not drawn) [SP010, N-[2-(4-cyclopropanecarbonyl-3-methyl-piperazin-1-yl)-1-(1H-indol-3-yl-methyl)-2-oxo-ethyl]-4-nitro-benzamide], the inhibition at 0.01 µM in data set [1] (Human immunodeficiency virus 1, IIIB, HeLa, no pre-medication, at 0.01 μM, read-out: strongest inhibition of viral replication) worked out at 55.6 ± 2.12%. The “efficacy in reducing HIV-1 IIIB replication compared to AZT, ddI or 3TC” value in data set [1] is reported as “efficacy higher than AZT, ddI or 3TC”. In data set [1] (setting [7]), the “inhibition of viral replication” value was found to be 40% and the “potency compared to ddI” value was “more potent that ddI”. Moreover, the “efficacy in inhibiting viral replication compared to ddI” value in data set [1] (within the range of 1 nM to 1 μM) is “higher efficacy than ddI”. Further, the “concentration at the peak of the inhibitory activity” value in data set [2] was 0.03 nM. Moreover, the 50% inhibitory concentration (IC50) in data set [3] (Human immunodeficiency virus 1, IIIB, HeLa) stood at 0.01 nM. For the same molecule, in data set [4], the “effect on HIV MDR 769 strain replication” value is on record as “effectively blocked” and the “maximal inhibition of MDR HIV strain replication” value is recorded as 50%. Also, the “effect on dbcAMP-induced 20á-hydroxyprogesterone production” value in data set [6] (Y1 cells) was “decreased in a dose-dependent manner”. Besides, the “potency on cAMP-corticosteroid formation compared to procaine” value in data set [6] (even at a concentration as low as 1 μM) is listed as “as potent as procaine”.

For `CCN(CC)CCNC(=O)c1ccc(N)cc1` [SP100, procainamide], in data set [1], the “efficacy in reducing HIV-1 IIIB replication compared to AZT, ddI or 3TC” value is “efficacy higher than AZT, ddI or 3TC”. For the same molecule, in data set [2], the “efficacy on viral replication compared to AZT” value is listed as “effective but at the same extent as AZT”. The “effect on HIV MDR 769 strain replication” value in data set [4] is recorded as “effectively blocked”.

For `O=c1[nH]cnc2c1ncn2[C@H]1CC[C@@H](CO)O1` [ddI], the “strongest inhibition of viral replication” value in data set [1] (no pre-medication, at 0.01 μM) came to 26.37±26.11%. Moreover, 89 µM corresponded to half-maximal inhibition in data set [5] (IC50).
